According to ChEMBL document CHEMBL6134844, “Development of Next-Generation Antimalarial Acridones with Radical Cure Potential” (J Med Chem, 2025):

What was measured:
[1] = system: Plasmodium falciparum; assay: Antiplasmodial activity against asexual blood-stage (ABS) CQ-sensitive Plasmodium falciparum D6 infected in human erythrocytes assessed as reduction in fluorescence measured after 72 hrs by Malaria SYBR Green I-based Fluorescence (MSF) assay; assay type: functional, organism-based; details: D6, Erythrocyte
[2] = system: Plasmodium falciparum; assay: Antiplasmodial activity against asexual blood-stage (ABS) MDR Plasmodium falciparum Dd2 infected in human erythrocytes assessed as reduction in fluorescence measured after 72 hrs by Malaria SYBR Green I-based Fluorescence (MSF) assay; assay type: functional, organism-based; details: Dd2, Erythrocyte
[3] = system: Plasmodium falciparum; assay: Antiplasmodial activity against asexual blood-stage (ABS) ATV-resistant clinical isolate Plasmodium falciparum Tm90-C2B infected in human erythrocytes assessed as reduction in fluorescence measured after 72 hrs by Malaria SYBR Green I-based Fluorescence (MSF) assay; assay type: functional, organism-based; details: Erythrocyte
[4] = system: HepG2; assay: Cytotoxicity against human HepG2 cells assessed as cell viability measured after 48 hrs by MTT assay; assay type: functional, cell-based; details: HepG2, 48 h
[5] = system: Plasmodium cynomolgi; assay: Antiplasmodial activity against hypnozoite Plasmodium cynomolgi B strain infected in Macaca mulatta hepatocytes incubated with sporozoite containing salivary gland homogenate obtained from dissected Anopheles dirus mosquitoes (infected with Plasmodium cynomolgi B strain) treatment started on day 4 post infection and continued daily for 4 days into fresh changed media until day 8 assessed as Liver stage (LS) activity by measuring prophylactic mode by immunofluorescent staining analysis; assay type: functional, organism-based; details: Hepatocyte
[6] = system: Plasmodium cynomolgi; assay: Antiplasmodial activity against schizont Plasmodium cynomolgi B strain infected in Macaca mulatta hepatocytes incubated with sporozoite containing salivary gland homogenate obtained from dissected Anopheles dirus mosquitoes (infected with Plasmodium cynomolgi B strain) treatment started on day 4 post infection and continued daily for 4 days into fresh changed media until day 8 assessed as Liver stage (LS) activity by measuring prophylactic mode by immunofluorescent staining analysis; assay type: functional, organism-based; details: Hepatocyte
[7] = system: Plasmodium cynomolgi; assay: Antiplasmodial activity against hypnozoite Plasmodium cynomolgi B strain infected in Macaca mulatta hepatocytes incubated with sporozoite containing salivary gland homogenate obtained from dissected Anopheles dirus mosquitoes (infected with Plasmodium cynomolgi B strain) treatment started on day 4 post infection and continued daily for 4 days into fresh changed media until day 8 assessed as Liver stage (LS) activity by measuring radical cure mode by immunofluorescent staining analysis; assay type: functional, organism-based; details: Hepatocyte
[8] = system: Plasmodium cynomolgi; assay: Antiplasmodial activity against schizont Plasmodium cynomolgi B strain infected in Macaca mulatta hepatocytes incubated with sporozoite containing salivary gland homogenate obtained from dissected Anopheles dirus mosquitoes (infected with Plasmodium cynomolgi B strain) treatment started on day 4 post infection and continued daily for 4 days into fresh changed media until day 8 assessed as Liver stage (LS) activity by measuring radical cure mode by immunofluorescent staining analysis; assay type: functional, organism-based; details: Hepatocyte
[9] = Selectivity index, ratio of CC50 for Macaca mulatta hepatocytes to IC50 for antiplasmodial activity against hypnozoite Plasmodium cynomolgi B strain infected in Macaca mulatta hepatocytes incubated with sporozoite containing salivary gland homogenate obtained from dissected Anopheles dirus mosquitoes (infected with Plasmodium cynomolgi B strain) treatment started on day 4 post infection and continued daily for 4 days into fresh changed media until day 8 assessed as Liver stage (LS) activity by measuring prophylactic mode by immunofluorescent staining analysis; assay type: toxicity, cell-based; details: rhesus monkey, read-out: Selectivity Index
[10] = Selectivity index, ratio of CC50 for Macaca mulatta hepatocytes to IC50 for antiplasmodial activity against schizont Plasmodium cynomolgi B strain infected in Macaca mulatta hepatocytes incubated with sporozoite containing salivary gland homogenate obtained from dissected Anopheles dirus mosquitoes (infected with Plasmodium cynomolgi B strain) treatment started on day 4 post infection and continued daily for 4 days into fresh changed media until day 8 assessed as Liver stage (LS) activity by measuring prophylactic mode by immunofluorescent staining analysis; assay type: toxicity, cell-based; details: rhesus monkey, read-out: Selectivity Index
[11] = Selectivity index, ratio of CC50 for Macaca mulatta hepatocytes to IC50 for antiplasmodial activity against hypnozoite Plasmodium cynomolgi B strain infected in Macaca mulatta hepatocytes incubated with sporozoite containing salivary gland homogenate obtained from dissected Anopheles dirus mosquitoes (infected with Plasmodium cynomolgi B strain) treatment started on day 4 post infection and continued daily for 4 days into fresh changed media until day 8 assessed as Liver stage (LS) activity by measuring radical cure mode by immunofluorescent staining analysis; assay type: toxicity, cell-based; details: rhesus monkey, read-out: Selectivity Index
[12] = Selectivity index, ratio of CC50 for Macaca mulatta hepatocytes to IC50 for antiplasmodial activity against schizont Plasmodium cynomolgi B strain infected in Macaca mulatta hepatocytes incubated with sporozoite containing salivary gland homogenate obtained from dissected Anopheles dirus mosquitoes (infected with Plasmodium cynomolgi B strain) treatment started on day 4 post infection and continued daily for 4 days into fresh changed media until day 8 assessed as Liver stage (LS) activity by measuring radical cure mode by immunofluorescent staining analysis; assay type: toxicity, cell-based; details: rhesus monkey, read-out: Selectivity Index
[13] = Toxicity in CF1 mouse infected with asexual blood-stage (ABS) Plasmodium yoelii MRA-428 assessed as clinical toxicity at 0.3 to 30 mg/kg, po treated 24 hrs post infection measured after 4 days; assay type: organism-based; details: in vivo, dose 0.3-30 mg/kg
[14] = Toxicity in CF1 mouse infected with asexual blood-stage (ABS) Plasmodium yoelii MRA-428 assessed as behavioural change at 0.3 to 30 mg/kg, po treated 24 hrs post infection measured after 4 days; assay type: organism-based; details: in vivo, dose 0.3-30 mg/kg
[15] = system: Plasmodium berghei; assay: In vivo antiplasmodial activity against luciferase expressing liver stage Plasmodium berghei ANKA MRA-868 sporozoites infected in Albino C57BL/6 mouse model assessed as blood stage infection at 40 mg/kg, po daily measured 72 hrs; assay type: functional, organism-based
[16] = system: Hepatocyte; assay: Cytotoxicity against Macaca mulatta hepatocytes assessed as cell viability measured after 48 hrs by MTT assay; assay type: toxicity, cell-based; details: rhesus monkey, 48 h
[17] = human, microsomes, 1 h
[18] = mouse, microsomes, 1 h
[19] = system: Plasmodium yoelii; assay: In vivo antiplasmodial activity against asexual blood-stage (ABS) Plasmodium yoelii MRA-428 infected in 4-day suppression CF1 mouse model assessed as reduction in parasitemia treated 24 hrs post infection daily measured on day 4; assay type: functional
[20] = system: Plasmodium yoelii; assay: In vivo antiplasmodial activity against asexual blood-stage (ABS) Plasmodium yoelii MRA-428 infected in 4-day suppression CF1 mouse model assessed as reduction in parasitemia by measuring protection at 30 mg/kg, po treated 24 hrs post infection daily measured up to 28 days; assay type: functional, organism-based; details: time <= 28.0 day
[21] = system: Plasmodium berghei; assay: In vivo antiplasmodial activity against luciferase expressing liver stage Plasmodium berghei ANKA MRA-868 sporozoites infected in Albino C57BL/6 mouse model assessed as protection at 10 mg/kg, po daily measured 24 to 72 hrs by real-time In Vivo Imaging System (IVIS); assay type: functional; details: time lower 24.0 hrs, time upper […]
[22] = Toxicity in CF1 mouse infected with asexual blood-stage (ABS) Plasmodium yoelii MRA-428 assessed as hunching at 0.3 to 30 mg/kg, po treated 24 hrs post infection measured after 4 days; assay type: organism-based; details: in vivo, 96 h, dose 0.3-30 mg/kg, time 4 day
[23] = Toxicity in CF1 mouse infected with asexual blood-stage (ABS) Plasmodium yoelii MRA-428 assessed as hyperactivity at 0.3 to 30 mg/kg, po treated 24 hrs post infection measured after 4 days; assay type: organism-based; details: in vivo, 96 h, dose 0.3-30 mg/kg, time 4 day
[24] = Toxicity in CF1 mouse infected with asexual blood-stage (ABS) Plasmodium yoelii MRA-428 assessed as lethargy at 0.3 to 30 mg/kg, po treated 24 hrs post infection measured after 4 days; assay type: organism-based; details: in vivo, 96 h, dose 0.3-30 mg/kg, time 4 day
[25] = Toxicity in CF1 mouse infected with asexual blood-stage (ABS) Plasmodium yoelii MRA-428 assessed as ruffled hair at 0.3 to 30 mg/kg, po treated 24 hrs post infection measured after 4 days; assay type: organism-based; details: in vivo, 96 h, dose 0.3-30 mg/kg, time 4 day
[26] = Toxicity in CF1 mouse infected with asexual blood-stage (ABS) Plasmodium yoelii MRA-428 assessed as weight loss at 0.3 to 30 mg/kg, po treated 24 hrs post infection measured after 4 days; assay type: organism-based; details: in vivo, 96 h, dose 0.3-30 mg/kg, time 4 day

Structure (SMILES)	IC50 [1] [pM]	IC50 [2] [nM]	IC50 [3] [nM]	IC50 [4] [nM]	IC50 [5] [nM]	IC50 [6] [nM]	IC50 [7] [nM]	IC50 [8] [nM]	selectivity ratio at 96 h [9]	selectivity ratio at 96 h [10]	selectivity ratio at 96 h [11]	selectivity ratio at 96 h [12]	Activity [13]	Activity [14]	CC50 [16] [nM]	t1/2 [17] [h]	CLH [18] [µL/min/mg]	ED90 [19] [mg/kg]	ED50 [19] [mg/kg]	other results
O=c1c2ccc(OCc3cccc(OC(F)(F)F)c3)cc2[nH]c2cc(F)cc(Cl)c12	30	0.004	20.4	> 200000	1170	150	4230	3520	5.09	39.5	1.4	1.68	Non-toxic	Non-toxic	5930	> 1	33.5			Activity [15]: Active; Out Of 5 - 5 Mouse Cured
O=c1c2ccc(Oc3ccc(OC(F)(F)F)cc3)cc2[nH]c2cc(F)c(Cl)cc12	4380	4.35	48.4	> 200000	410	600	> 20000	6550	> 48.8	> 33.3		> 3.05	Non-toxic	Non-toxic	> 20000	> 1	< 3.125	0.17		Activity [20]: Active; Out Of 4 - 3 Mouse Cured
COc1cc(C)c2c(Oc3cccc(C(F)(F)F)c3)c(OC)cc(NC(C)CCCN)c2n1 (configuration not stated) [TAFENOQUINE]					170	40	7810	5440	89.4	380	1.95	2.79			15200					Activity [21]: Not active; Out Of 5 - 0 Mouse Cured
CC(C)(C)OC(=O)N1CCC(Oc2ccc3c(=O)c4c(F)cc(Cl)cc4[nH]c3c2)CC1	0.7	0.295	271	59900	470	50	1780	670	4.62	43.4	1.22	3.24	Non-toxic	Non-toxic	2170	> 1	58.5	0.72	0.34	
O=c1c2c([nH]c3ccc(Oc4ccc(OC(F)(F)F)cc4)cc13)CCCC2	7550	13.3	29.9	> 200000	3810	500	> 20000	> 20000	> 5.25	> 40			Non-toxic	Non-toxic	> 20000		56.8	7.8	1.8	Activity [22]: Non-toxic; Activity [23]: Non-toxic; Activity [24]: Non-toxic; Activity [25]: Non-toxic; Activity [26]: Non-toxic
CCCCCCOc1ccc2c(=O)c3c([nH]c2c1)CCCC3	477	2.73	5.11	> 200000	> 20000	2820	> 20000	> 20000		> 7.09					> 20000		37.6			Activity [15]: Active; Out Of 5 - 5 Mouse Cured; Activity [22]: Non-toxic; Activity [23]: Non-toxic; Activity [24]: Non-toxic; Activity [25]: Non-toxic; Activity [26]: Non-toxic
O=c1c2ccc(OCc3ccc(OC(F)(F)F)cc3)cc2[nH]c2cc(Cl)cc(F)c12	0.041	0.128	30.4	177000	470	80	470	280	1.76	10.4	1.77	2.96	Non-toxic	Non-toxic	830	> 1	< 3.125	0.55	0.1	
